According to patent publication US20240002397A1, “3-AMINO PYRROLIDINE AND PIPERIDINE MACROCYCLIC OREXIN RECEPTOR AGONISTS” (Merck Sharp & Dohme LLC, priority 2020, published 2024):

Each compound was assayed against T1, human OX2R (Homo sapiens, UniProt O43614) (assay: IPOne (IP-1) orexin receptor agonist assay in CHO cells expressing human OX2R). Conditions: CHO, hOX2R IP-One; percentage of mean max effect of a reference compound at 1 uM with 100% activity.
T1 sequence (O43614 1-444): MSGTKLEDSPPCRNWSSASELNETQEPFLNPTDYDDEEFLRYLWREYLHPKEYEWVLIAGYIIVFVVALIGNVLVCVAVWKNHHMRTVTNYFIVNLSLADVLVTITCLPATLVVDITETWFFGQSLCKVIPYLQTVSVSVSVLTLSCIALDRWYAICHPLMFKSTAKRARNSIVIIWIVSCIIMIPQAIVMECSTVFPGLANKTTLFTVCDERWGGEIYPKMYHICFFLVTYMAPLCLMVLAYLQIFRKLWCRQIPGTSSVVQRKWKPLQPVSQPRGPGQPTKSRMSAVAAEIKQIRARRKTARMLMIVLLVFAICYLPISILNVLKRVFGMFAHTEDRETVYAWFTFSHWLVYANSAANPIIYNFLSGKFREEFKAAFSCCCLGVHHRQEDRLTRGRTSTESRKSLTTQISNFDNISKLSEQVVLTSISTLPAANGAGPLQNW
Experimental: In atypical experiment, the OX1 and OX2 receptor agonist activity is determined in accordance with the following general experimental method. Chinese hamster ovary (CHO) cells expressing human OX1R and/or the human OX2R were grown in Iscove's modified DMEM containing glutaMAX™, 1% G418, 100 U/mL penicillin, 100 μg/mL streptomycin and 10% heat-inactivated qualified fetal bovine serum (FBS). […] During this incubation, IP-one detection reagents were prepared (38:1:1 lysis buffer:D2:AB-cryptate reagents).
For each compound, data were fit to a four parameter logistic fit (ActivityBase software) and the EC50 was reported as the inflection point of the resulting curve.

Compound	Emax
COC[C@@H]1C[C@H](NS(C)(=O)=O)[C@@H]2COC3CCC(CC3)c3cccc(F)c3/C=C/OC(=O)N12 [Example 3, N-((2^1R,2^4R,5^2R,5^3S,5^5S,E)-1^3-fluoro-5^5-(methoxymethyl)-6-oxo-3,7-dioxa-5(2,1)-pyrrolidina-1(1,2)-benzena-2(1,4)-cyclohexanacyclonaphan-8-en-5^3-yl)methanesulfonamide]	99.5%
C[C@@H]1C[C@H](NS(C)(=O)=O)[C@@H]2CO[C@H]3CC[C@H](CC3)c3cc(C(F)(F)F)cc(n3)OCCCOC(=O)N12 [Example 51, N-((2^1S,2^4S,5^2R,5^3S,5^5R)-5^5-methyl-6-oxo-14-(trifluoromethyl)-3,7,11-trioxa-1(2,6)-pyridina-5(2,1)-pyrrolidina-2(1,4)-cyclohexanacycloundecaphane-5^3-yl)methanesulfonamide]	99.2%
C[C@@H]1C[C@H](NS(C)(=O)=O)C2CO[C@H]3CC=C(CC3)c3cccc(c3F)OCCCOC(=O)N21 (stereo partly drawn) [Example 46, N-((2^1S,2^4S, 5^2R,5^3S,5^5R)-1^2-fluoro-5^5-methyl-6-oxo-3,7,11-trioxa-5(2,1)-pyrrolidina-1(1,3)-benzena-2(1,4)-cyclohexana-cyclounde-caphan-2^1-en-5^3-yl)methane-sulfonamide]	102%
C[C@@H]1C[C@H](NS(C)(=O)=O)C2COC3CCC(CC3)c3cc(C(F)(F)F)cc(n3)OCCOC(=O)N21 (stereo partly drawn) [Example 54, N-((2^1S,2^4S,5^2R,5^3S,5^5R)-5^5-methyl-6-oxo-1^4-(trifluoromethyl)-3,7,10-trioxa-1(2,6)-pyridina-5(2,1)-pyrrolidina-2(1,4)-cyclohexanacyclodecaphane-5^3-yl)methanesulfonamide]	100%
C[C@@H]1C[C@H](NS(C)(=O)=O)C2COC3CCC(CC3)c3ccc(F)c(n3)OCCOC(=O)N21 (stereo partly drawn) [Example 56, N-((2^1S,2^4S,5^2R,5^3S,5^5R)-1^5-fluoro-5^5-methyl-6-oxo-3,7,10-trioxa-1(2,6)-pyridina-5(2,1)-pyrrolidina-2(1,4)-cyclohexanacyclodecaphane-5^3-yl)methanesulfonamide]	98.2%
C[C@@H]1C[C@H](NS(C)(=O)=O)C2COC3CCC(CC3)c3cc(F)cc(c3)OCCCCC(=O)N21 (stereo partly drawn) [Example 44, N-((2^1S,2^4S, 5^2R,5^3S,5^5R)-1^5-fluoro-5^5-methyl-6-oxo-3,11-dioxa-5(2,1)-pyrrolidina-1(1,3)-benzena-2(1,4)-cyclohexana-cyclounde-caphane-5^3-yl)methane-sulfonamide]	102%
C[C@@H]1C[C@H](NS(=O)(=O)N(C)C)C2COC3CCC(CC3)c3cccc(c3)OCCCC(=O)N21 (stereo partly drawn) [Example 14, N′-((2^1S,2^4S,5^2R, 5^3S,5^5R)-5^5-methyl-6-oxo-3,10-dioxa-5(2,1)-pyrrolidina-1(1,3)-benzena-2(1,4)-cyclohexana-cyclodecaphane-5^3-yl)-N,N-methyl-sulfamide]	100%
C[C@@H]1C[C@H](NS(C)(=O)=O)C2CO[C@H]3CC=C(CC3)c3cc(F)cc(c3)OCCCOC(=O)N21 (stereo partly drawn) [Example 41]	102%
C[C@@H]1C[C@H](NS(C)(=O)=O)[C@@H]2COC3CCC(CC3)c3ccccc3/C=C/OC(=O)N12 [Example 2, N-((2^1R,2^4R,5^2R,5^3S,5^5R,E)-5^5-methyl-6-oxo-3,7-dioxa-5(2,1)-pyrrolidina-1(1,2)-benzena-2(1,4)-cyclohexanacyclonaphan-8-en-5^3-yl)methanesulfonamide]	102%
CC(C)Oc1ccc2cc1C1CCC(CC1)OCC1[C@@H](NS(C)(=O)=O)C[C@@H](C)N1C(=O)OCCO2 (stereo partly drawn) [Example 62, N-((2^1S,2^4S,5^2R,5^3S,5^5R)-1^6-isopropoxy-5^5-methyl-6-oxo-3,7,10-trioxa-5(2,1)-pyrrolidina-1(1,3)-benzena-2(1,4)-cyclohexanacyclodecaphane-5^3-yl)methanesulfonamide]	91.2%
C[C@@H]1C[C@H](NS(C)(=O)=O)C2COC3CCC(CC3)c3nc(ccc3OC(F)(F)F)OCCOC(=O)N21 (stereo partly drawn) [Example 58, N-((2^1S,2^4S,5^2R,5^3S,5^5R)-5^5-methyl-6-oxo-1^3-(trifluoromethoxy)-3,7,10-trioxa-1(2,6)-pyridina-5(2,1)-pyrrolidina-2(1,4)-cyclohexanacyclodecaphane-5^3-yl)methanesulfonamide]	102%
C[C@@H]1C[C@H](NS(C)(=O)=O)C2COC3CCC(CC3)c3ccc(C(F)(F)F)c(n3)OCCOC(=O)N21 (stereo partly drawn) [Example 64, N-((2^1S,2^4S,5^2R,5^3S,5^5R)-5^5-methyl-6-oxo-1^5-(trifluoromethyl)-3,7,10-trioxa-1(2,6)-pyridina-5(2,1)-pyrrolidina-2(1,4)-cyclohexanacyclodecaphane-5^3-yl)methanesulfonamide]	102%

Results, then the compound that gave them:

Emax	Compound
99.6%	COc1cc2nc(c1)C1CCC(CC1)OC[C@H]1[C@@H](NS(C)(=O)=O)C[C@@H](C)N1C(=O)OCCCC2 [Example 111, N-((2^1S,2^4S,5^2R,5^3S,5^5R)-1^4-methoxy-5^5-methyl-6-oxo-3,7-dioxa-1(2,6)-pyridina-5(2,1)-pyrrolidina-2(1,4)-cyclohexanacycloundecaphane-5^3-yl)methanesulfonamide]
101%	COc1ccc2nc1OCCCOC(=O)N1C(COC3CCC2CC3)[C@@H](NS(C)(=O)=O)C[C@H]1C (stereo partly drawn) [Example 76, N-((2^1S,2^4S,5^2R,5^3S,5^5R)-1^5-methoxy-5^5-methyl-6-oxo-3,7,11-trioxa-1(2,6)-pyridina-5(2,1)-pyrrolidina-2(1,4)-cyclohexanacycloundecaphane-5^3-yl)methanesulfonamide]
98.9%	C[C@@H]1C[C@H](NS(C)(=O)=O)C2COC3CCC(CC3)c3ccc(F)c(n3)NCCOC(=O)N21 (stereo partly drawn) [Example 92, N-((2^1S,2^4S,5^2R,5^3S,5^5R)-1^5-fluoro-5^5-methyl-6-oxo-3,7-dioxa-10-aza-1(2,6)-pyridina-5(2,1)-pyrrolidina-2(1,4)-cyclohexanacyclodecaphane-5^3-yl)methanesulfonamide]
101%	COC[C@@H]1C[C@H](NS(C)(=O)=O)C2COC3CCC(CC3)c3cc(C(F)(F)F)cc(n3)OCCOC(=O)N21 (stereo partly drawn) [Example 84, N-((2^1S,2^4S,5^2R,5^3S,5^5S)-5^5-(methoxymethyl)-6-oxo-1^4-(trifluoromethyl)-3,7,10-trioxa-1(2,6)-pyridina-5(2,1)-pyrrolidina-2(1,4)-cyclohexanacyclodecaphane-5^3-yl)methanesulfonamide]
98.5%	Cc1cc2nc(c1)C1CCC(CC1)OCC1[C@@H](NS(C)(=O)=O)C[C@@H](C)N1C(=O)OCCCO2 (stereo partly drawn) [Example 67, N-((2^1S,2^4S,5^2R,5^3S,5^5R)-1^4,5^5-dimethyl-6-oxo-3,7,11-trioxa-1(2,6)-pyridina-5(2,1)-pyrrolidina-2(1,4)-cyclohexanacycloundecaphane-5^3-yl)methanesulfonamide]
95%	Cc1cc2nc(c1)C1CCC(CC1)OCC1[C@@H](NS(C)(=O)=O)C[C@@H](C)N1C(=O)OCCO2 (stereo partly drawn) [Example 66, N-((2^1S,2^4S,5^2R,5^3S,5^5R)-1^4,5^5-dimethyl-6-oxo-3,7,10-trioxa-1(2,6)-pyridina-5(2,1)-pyrrolidina-2(1,4)-cyclohexanacyclodecaphane-5^3-yl)methanesulfonamide]
100%	CCOc1cc2nc(c1)C1CCC(CC1)OCC1[C@@H](NS(C)(=O)=O)C[C@@H](C)N1C(=O)OCCCO2 (stereo partly drawn) [Example 78, N-((2^1S,2^4S,5^2R,5^3S,5^5R)-1^4-ethoxy-5^5-methyl-6-oxo-3,7,11-trioxa-1(2,6)-pyridina-5(2,1)-pyrrolidina-2(1,4)-cyclohexanacycloundecaphane-5^3-yl)methanesulfonamide]
100%	COC[C@@H]1C[C@H](NS(C)(=O)=O)C2COC3CCC(CC3)c3nc(ccc3C(F)(F)F)OCCOC(=O)N21 (stereo partly drawn) [Example 87, N-((2^1S,2^4S,5^2R,5^3S,5^5S)-5^5-(methoxymethyl)-6-oxo-1^3-(trifluoromethyl)-3,7,10-trioxa-1(2,6)-pyridina-5(2,1)-pyrrolidina-2(1,4)-cyclohexanacyclodecaphane-5^3-yl)methanesulfonamide]
102%	COC[C@@H]1C[C@H](NS(C)(=O)=O)C2COC3CCC(CC3)c3cc(C(F)F)cc(n3)OCCCOC(=O)N21 (stereo partly drawn) [Example 85, N-((2^1S,2^4S,5^2R,5^3S,5^5S)-14-(difluoromethyl)-5^5-(methoxymethyl)-6-oxo-3,7,11-trioxa-1(2,6)-pyridina-5(2,1)-pyrrolidina-2(1,4)-cyclohexanacycloundecaphane-5^3-yl)methanesulfonamide]
101%	C[C@@H]1C[C@H](NS(C)(=O)=O)C2COC3CCC(CC3)c3cc(C(F)F)cc(n3)OCCCOC(=O)N21 (stereo partly drawn) [Example 86, N-((2^1S,2^4S,5^2R,5^3S,5^5R)-1^4-(difluoromethyl)-5^5-methyl-6-oxo-3,7,11-trioxa-1(2,6)-pyridina-5(2,1)-pyrrolidina-2(1,4)-cyclohexanacycloundecaphane-5^3-yl)methanesulfonamide]

Same assay, conditions: hOX2R IP-One; percentage of mean max effect of a reference compound at 1 uM with 100% activity

Compound	Emax (%)
CC1CC(NS(=O)(=O)N(C)C)C2COC3CCC(CC3)c3cccc(c3)OCCCOC(=O)N12 (stereo not drawn) [Example 13]	99.3%
N-((2^1S,2^4S,5^2R,5^3S,5^5R)-1^5- fluoro-1^4-methoxy-5^5-methyl- 6-oxo-3,7,10-trioxa-1(2,6)- pyridina-5(2,1)-pyrrolidina- 2(1,4)-cyclohexanacyclode caphane-5^3-yl)methane sulfonamide [Example 74]	110.2%
